Key:
[1] = system: CCRF-CEM; assay: Growth inhibition of human CCRF-CEM cells incubated for 48 hrs by sulforhodamine B assay; format: functional, cell-based
[2] = system: K562; assay: Growth inhibition of human K562 cells incubated for 48 hrs by sulforhodamine B assay; format: functional, cell-based; conditions: K562, 48 h
[3] = system: OVCAR-8; assay: Growth inhibition of human OVCAR8 cells incubated for 48 hrs by sulforhodamine B assay; format: functional, cell-based; conditions: OVCAR-8, 48 h
[4] = system: Hs-578T; assay: Growth inhibition of human Hs578T cells incubated for 48 hrs by sulforhodamine B assay; format: functional, cell-based
[5] = system: NCI-H226; assay: Growth inhibition of human NCI-H226 cells assessed as cell growth at 0.01 uM incubated for 48 hrs by sulforhodamine B assay relative to control; format: functional; conditions: NCI-H226, 48 h, read-out: Activity
[6] = system: NCI-H23; assay: Growth inhibition of human NCI-H23 cells assessed as cell growth at 0.01 uM incubated for 48 hrs by sulforhodamine B assay relative to control; format: functional; conditions: NCI-H23, 48 h, read-out: Activity
[7] = system: SF-268; assay: Growth inhibition of human SF268 cells assessed as cell growth at 0.01 uM incubated for 48 hrs by sulforhodamine B assay relative to control; format: functional; conditions: SF-268, 48 h, read-out: Activity
[8] = system: LOX IMVI; assay: Growth inhibition of human LOXIMVI cells assessed as cell growth at 0.01 uM incubated for 48 hrs by sulforhodamine B assay relative to control; format: functional; conditions: read-out: Activity
[9] = system: M14; assay: Growth inhibition of human M14 cells assessed as cell growth at 0.01 uM incubated for 48 hrs by sulforhodamine B assay relative to control; format: functional; conditions: M14, 48 h, read-out: Activity
[10] = system: OVCAR-4; assay: Growth inhibition of human OVCAR4 cells assessed as cell growth at 0.01 uM incubated for 48 hrs by sulforhodamine B assay relative to control; format: functional; conditions: OVCAR-4, 48 h, read-out: Activity
[11] = system: SK-OV-3; assay: Growth inhibition of human SKOV3 cells assessed as cell growth at 0.01 uM incubated for 48 hrs by sulforhodamine B assay relative to control; format: functional; conditions: SK-OV-3, 48 h, read-out: Activity
[12] = system: 786-0; assay: Growth inhibition of human 786-0 cells assessed as cell growth at 0.01 uM incubated for 48 hrs by sulforhodamine B assay relative to control; format: functional; conditions: 786-0, 48 h, read-out: Activity
[13] = system: CAKI-1; assay: Growth inhibition of human Caki1 cells assessed as cell growth at 0.01 uM incubated for 48 hrs by sulforhodamine B assay relative to control; format: functional; conditions: CAKI-1, 48 h, read-out: Activity
[14] = system: SN12C; assay: Growth inhibition of human SN12C cells assessed as cell growth at 0.01 uM incubated for 48 hrs by sulforhodamine B assay relative to control; format: functional; conditions: read-out: Activity
[15] = system: UO-31; assay: Growth inhibition of human UO31 cells assessed as cell growth at 0.01 uM incubated for 48 hrs by sulforhodamine B assay relative to control; format: functional; conditions: UO-31, 48 h, read-out: Activity
[16] = system: DU-145; assay: Growth inhibition of human DU145 cells assessed as cell growth at 0.01 uM incubated for 48 hrs by sulforhodamine B assay relative to control; format: functional; conditions: DU-145, 48 h, read-out: Activity
[17] = system: CCRF-CEM; assay: Growth inhibition of human CCRF-CEM cells assessed as cell growth at 0.1 uM incubated for 48 hrs by sulforhodamine B assay relative to control; format: functional; conditions: read-out: Activity
[18] = system: NCI-H322M; assay: Growth inhibition of human NCI-H322M cells assessed as cell growth at 0.1 uM incubated for 48 hrs by sulforhodamine B assay relative to control; format: functional; conditions: read-out: Activity
[19] = system: IGROV-1; assay: Growth inhibition of human IGROV1 cells assessed as cell growth at 0.1 uM incubated for 48 hrs by sulforhodamine B assay relative to control; format: functional; conditions: IGROV-1, 48 h, read-out: Activity
[20] = system: ACHN; assay: Growth inhibition of human ACHN cells assessed as cell growth at 0.1 uM incubated for 48 hrs by sulforhodamine B assay relative to control; format: functional; conditions: read-out: Activity
[21] = system: CAKI-1; assay: Growth inhibition of human Caki1 cells assessed as cell growth at 0.1 uM incubated for 48 hrs by sulforhodamine B assay relative to control; format: functional; conditions: CAKI-1, 48 h, read-out: Activity
[22] = system: MCF7; assay: Growth inhibition of human MCF7 cells assessed as cell growth at 0.1 uM incubated for 48 hrs by sulforhodamine B assay relative to control; format: functional; conditions: MCF7, 48 h, read-out: Activity
[23] = system: Hs-578T; assay: Growth inhibition of human Hs578T cells assessed as cell growth at 0.1 uM incubated for 48 hrs by sulforhodamine B assay relative to control; format: functional; conditions: read-out: Activity
[24] = system: MDA-MB-468; assay: Growth inhibition of human MDA-MB-468 cells assessed as cell growth at 0.1 uM incubated for 48 hrs by sulforhodamine B assay relative to control; format: functional; conditions: MDA-MB-468, 48 h, read-out: Activity
[25] = system: CCRF-CEM; assay: Growth inhibition of human CCRF-CEM cells assessed as cell growth at 1 uM incubated for 48 hrs by sulforhodamine B assay relative to control; format: functional; conditions: read-out: Activity
[26] = system: SR; assay: Growth inhibition of human SR cells assessed as cell growth at 1 uM incubated for 48 hrs by sulforhodamine B assay relative to control; format: functional; conditions: read-out: Activity
[27] = system: SF-295; assay: Growth inhibition of human SF295 cells assessed as cell growth at 1 uM incubated for 48 hrs by sulforhodamine B assay relative to control; format: functional; conditions: SF-295, 48 h, read-out: Activity
[28] = system: PC-3; assay: Growth inhibition of human PC3 cells assessed as cell growth at 1 uM incubated for 48 hrs by sulforhodamine B assay relative to control; format: functional; conditions: PC-3, 48 h, read-out: Activity
[29] = system: MCF7; assay: Growth inhibition of human MCF7 cells assessed as cell growth at 1 uM incubated for 48 hrs by sulforhodamine B assay relative to control; format: functional; conditions: MCF7, 48 h, read-out: Activity
[30] = system: NCI-H23; assay: Growth inhibition of human NCI-H23 cells assessed as cell growth at 100 uM incubated for 48 hrs by sulforhodamine B assay relative to control; format: functional; conditions: NCI-H23, 48 h, read-out: Activity
[31] = system: A498; assay: Growth inhibition of human A498 cells assessed as cell growth at 100 uM incubated for 48 hrs by sulforhodamine B assay relative to control; format: functional; conditions: A498, 48 h, read-out: Activity
[32] = system: ACHN; assay: Growth inhibition of human ACHN cells assessed as cell growth at 100 uM incubated for 48 hrs by sulforhodamine B assay relative to control; format: functional; conditions: read-out: Activity
[33] = system: MCF7; assay: Growth inhibition of human MCF7 cells assessed as cell growth at 100 uM incubated for 48 hrs by sulforhodamine B assay relative to control; format: functional; conditions: MCF7, 48 h, read-out: Activity
[34] = read-out: LC50 (the source's name)
[35] = read-out: pLC50 (the source's name) (converted)

SMILES: O=C(Nc1cccc(-n2cc(-c3ccncc3)c(-c3cc(O)cc(Cl)c3)n2)c1)Nc1ccc(Cl)c(C(F)(F)F)c1
- GI50 ([1]; read-out: GI50): 2730 nM
- CC50 [1, 34]: > 100000 nM
- TGI ([1]; read-out: TGI): 85000 nM
- GI50 ([1]; read-out: pGI50 (converted)): 2750 nM
- CC50 [1, 35]: > 100000 nM
- TGI ([1]; read-out: pTGI (converted)): 8910 nM
- GI50 ([2]; read-out: GI50): 2590 nM
- LC50 ([2]; read-out: LC50): > 100000 nM
- TGI ([2]; read-out: TGI): 11000 nM
- GI50 ([2]; read-out: pGI50 (converted)): 2570 nM
- LC50 ([2]; read-out: pLC50 (converted)): > 100000 nM
- TGI ([2]; read-out: pTGI (converted)): 12000 nM
- GI50 ([3]; read-out: GI50): 2150 nM
- CC50 [3, 34]: 50100 nM
- TGI ([3]; read-out: TGI): 55500 nM
- GI50 ([3]; read-out: pGI50 (converted)): 2140 nM
- CC50 [3, 35]: 79400 nM
- TGI ([3]; read-out: pTGI (converted)): 5620 nM
- GI50 ([4]; read-out: GI50): 3200 nM
- CC50 [4, 34]: > 100000 nM
- TGI ([4]; read-out: TGI): > 100000 nM
- GI50 ([4]; read-out: pGI50 (converted)): 3310 nM
- CC50 [4, 35]: > 100000 nM
- TGI ([4]; read-out: pTGI (converted)): > 100000 nM
- growth at 0.01 µM [5]: 97%
- growth at 0.01 µM [6]: 92%
- growth at 0.01 µM [7]: 95%
- growth at 0.01 µM [8]: 90%
- growth at 0.01 µM [9]: 97%
- growth at 0.01 µM [10]: 99%
- growth at 0.01 µM [11]: 108%
- growth at 0.01 µM [12]: 98%
- growth at 0.01 µM [13]: 102%
- growth at 0.01 µM [14]: 102%
- growth at 0.01 µM [15]: 93%
- growth at 0.01 µM [16]: 103%
- growth at 0.1 µM [17]: 95%
- growth at 0.1 µM [18]: 101%
- growth at 0.1 µM [19]: 98%
- growth at 0.1 µM [20]: 93%
- growth at 0.1 µM [21]: 103%
- growth at 0.1 µM [22]: 91%
- growth at 0.1 µM [23]: 94%
- growth at 0.1 µM [24]: 94%
- growth at 1 µM [25]: 92%
- growth at 1 µM [26]: 57%
- growth at 1 µM [27]: 91%
- growth at 1 µM [28]: 83%
- growth at 1 µM [29]: 91%
- growth at 100 µM [30]: -55%
- growth at 100 µM [31]: -35%
- growth at 100 µM [32]: -25%
- growth at 100 µM [33]: -43%

SMILES: COc1cc(Cl)cc(-c2nn(-c3cccc(NC(=O)Nc4cc(C(F)(F)F)cc(C(F)(F)F)c4)c3)cc2-c2ccncc2)c1
- IC50 [1]: 270 nM
- GI50 ([1]; read-out: GI50): 273 nM
- CC50 [1, 34]: > 100000 nM
- TGI ([1]; read-out: TGI): 1330 nM
- GI50 ([1]; read-out: pGI50 (converted)): 275 nM
- CC50 [1, 35]: > 100000 nM
- TGI ([1]; read-out: pTGI (converted)): 1350 nM
- IC50 [2]: 350 nM
- GI50 ([2]; read-out: GI50): 351 nM
- LC50 ([2]; read-out: LC50): > 100000 nM
- TGI ([2]; read-out: TGI): 5840 nM
- GI50 ([2]; read-out: pGI50 (converted)): 355 nM
- LC50 ([2]; read-out: pLC50 (converted)): > 100000 nM
- TGI ([2]; read-out: pTGI (converted)): 5890 nM
- IC50 [3]: 390 nM
- GI50 ([3]; read-out: GI50): 391 nM
- TGI ([3]; read-out: TGI): 2190 nM
- GI50 ([3]; read-out: pGI50 (converted)): 389 nM
- CC50 [3, 35]: 47900 nM
- TGI ([3]; read-out: pTGI (converted)): 2190 nM
- IC50 [4]: 1400 nM
- GI50 ([4]; read-out: GI50): 1400 nM
- TGI ([4]; read-out: TGI): 7260 nM
- GI50 ([4]; read-out: pGI50 (converted)): 1450 nM
- CC50 [4, 35]: > 100000 nM
- TGI ([4]; read-out: pTGI (converted)): 7240 nM
- growth at 0.01 µM [5]: 101%
- growth at 0.01 µM [6]: 94%
- growth at 0.01 µM [7]: 97%
- growth at 0.01 µM [9]: 96%
- growth at 0.01 µM [10]: 93%
- growth at 0.01 µM [11]: 100%
- growth at 0.01 µM [12]: 96%
- growth at 0.01 µM [13]: 97%
- growth at 0.01 µM [14]: 96%
- growth at 0.01 µM [15]: 79%
- growth at 0.01 µM [16]: 104%
- growth at 0.1 µM [17]: 84%
- growth at 0.1 µM [18]: 95%
- growth at 0.1 µM [19]: 104%
- growth at 0.1 µM [20]: 99%
- growth at 0.1 µM [21]: 95%
- growth at 0.1 µM [22]: 91%
- growth at 0.1 µM [23]: 95%
- growth at 0.1 µM [24]: 89%
- growth at 1 µM [25]: 5%
- growth at 1 µM [26]: 28%
- growth at 1 µM [27]: 12%
- growth at 1 µM [28]: 5%
- growth at 1 µM [29]: 21%
- growth at 100 µM [30]: -58%
- growth at 100 µM [31]: -59%
- growth at 100 µM [32]: -38%
- growth at 100 µM [33]: -44%

Source: ChEMBL document CHEMBL4308841, “Synthesis, in vitro antiproliferative activity, and kinase inhibitory effects of pyrazole-containing diarylureas and diarylamides” (Eur J Med Chem, 2018)
